Laboratory results reported in patent US6852722B2, “Compositions and methods for stimulating gastrointestinal mobility” (Pfizer Inc., priority 2000, dated 2005).

Tested on: Male CD Sprague-Dawley rats
Experiment: Gastrointestinal transit in rats (51Cr marker: gastric emptying and geometric center)
Format: in vivo, rat
Settings: for effect on gastrointestinal transit: 0.1 mg/kg oral; for % Gastric Emptying: 51Cr marker 15 min after dose, killed 20 min later; for % Gastric Emptying / Geometric Center: mean ± SEM; for Geometric Center: stomach = segment 0, intestine segments 1-10; for increase in gastric emptying / increase in geometric center (transit through stomach and small intestine): relative to vehicle
Description: Male CD Sprague-Dawley rats (175-225 grams) are fitted with tail cups to prevent coprophagy and fasted overnight. The next day the rats are orally given either vehicle (water, 5 ml/kg) or a solution of the test compound in water at doses of 0.1, 0.5, 1 or 5 mg/kg p.o. Fifteen minutes later, the rats are given 1.0 ml of an evaporated milk solution containing 20,000 cpm of ^51Cr as sodium chromate.
The rats are killed 20 minutes after administration of the radioactive marker. The gastroesophageal, pyloric, and ileocecal junctions are ligated, the stomach is removed and the small intestine is divided into ten equal lengths. The stomach and each length of intestine are assayed for radioactivity with a gamma counter. Gastric emptying is determined for each rat by comparing the amount of radioactivity in the intestine relative to the total in the intestine plus stomach. In addition, the geometric center of the distribution of the radioactive marker is used to measure the overall transit rate through the stomach and intestine. Geometric center is calculated as: Σ((fraction of ^51Cr per segment)×(segment number)). For these calculations the stomach is segment number 0 while the ten intestinal segments are designated 1 to 10. Thus, a geometric center of 0.0 would indicate that the entire load of ^51Cr had remained in the stomach.
Results from test compound-treated rats and vehicle-treated rats are compared using one-way ANOVA and Dunnett's test for simultaneous multiple comparisons. The effect of the test compound on gastrointestinal transit in rats is evaluated by measuring gastric emptying and the geometric center of distribution of an orally administered radioactive marker.

SMILES | effect on gastrointestinal transit | % Gastric Emptying (0.1 mg/kg p.o.) | Geometric Center (0.1 mg/kg p.o.) | increase in gastric emptying (0.5 mg/kg oral) | increase in geometric center (transit through stomach and small intestine) (0.5 mg/kg oral) | % Gastric Emptying (0.5 mg/kg p.o.) | Geometric Center (0.5 mg/kg p.o.) | increase in geometric center (transit through stomach and small intestine) (1 mg/kg oral) | increase in gastric emptying (1.0 mg/kg oral) | % Gastric Emptying (1 mg/kg p.o.) | Geometric Center (1 mg/kg p.o.) | increase in geometric center (transit through stomach and small intestine) (5 mg/kg oral) | increase in gastric emptying (5.0 mg/kg oral) | % Gastric Emptying (5 mg/kg p.o.) | Geometric Center (5 mg/kg p.o.) | gastric emptying and transport through the upper GI tract (doses of 0.5, 1 and 5 mg/kg oral) | % Gastric Emptying (1 mg/kg p.o., listed as 1st test compound) | % Gastric Emptying (5 mg/kg p.o., listed as 1st test compound)
CC(C)(N)C(=O)N[C@H](COCc1ccc(F)cc1F)C(=O)N1CCC2=NN(CC(F)(F)F)C(=O)[C@]2(Cc2ccccn2)C1 [second test compound] | no effect | 68.9 ± 3.4% | 3.1 ± 0.2 | 21% | 37% | *79.5 ± 3.6% | *3.9 ± 0.3 | 50% | 37% | *89.9 ± 2.3% | *4.3 ± 0.2 | 42% | 34% | *88.3 ± 2.4% | *4.1 ± 0.2 | increased | – | –
CN1N=C2CCN(C(=O)[C@@H](COCc3ccccc3)NC(=O)C(C)(C)N)C[C@@]2(Cc2ccccc2)C1=O [first test compound, 2-amino-N-(2-(3a-(R)-benzyl-2-methyl-3-oxo-2,3,3a,4,6,7-hexahydro-pyrazolo-[4,3-c]pyridin-5-yl)-1-(R)-benzyloxymethyl-2-oxo-ethyl)-isobutyramide] | no effect | 62.5 ± 3.4% | 2.82 ± 0.17 | 25% | 39% | *79.0 ± 4.2% | *4.03 ± 0.26 | 67% | 45% | 92% | *4.81 ± 0.21 | 68% | 49% | 94% | *4.85 ± 0.19 | – | *91.5 ± 1.6% | *93.7 ± 1.4%
